Reference: patent US12479847B2 (DANA-FARBER CANCER INSTITUTE, INC., priority 2019, dated 2025)

How the values were obtained:
panel of 468 kinases [1] = target: T1, panel of 468 kinases (Homo sapiens, UniProt O15197); test: KINOMEscan (ScanMAX) kinase profiling; type: binding; conditions: EPHB6; 1 μM; read-out: % control
T1 construct: purchased KINOMEscan (ScanMAX) service
T1 sequence (O15197 32-1021): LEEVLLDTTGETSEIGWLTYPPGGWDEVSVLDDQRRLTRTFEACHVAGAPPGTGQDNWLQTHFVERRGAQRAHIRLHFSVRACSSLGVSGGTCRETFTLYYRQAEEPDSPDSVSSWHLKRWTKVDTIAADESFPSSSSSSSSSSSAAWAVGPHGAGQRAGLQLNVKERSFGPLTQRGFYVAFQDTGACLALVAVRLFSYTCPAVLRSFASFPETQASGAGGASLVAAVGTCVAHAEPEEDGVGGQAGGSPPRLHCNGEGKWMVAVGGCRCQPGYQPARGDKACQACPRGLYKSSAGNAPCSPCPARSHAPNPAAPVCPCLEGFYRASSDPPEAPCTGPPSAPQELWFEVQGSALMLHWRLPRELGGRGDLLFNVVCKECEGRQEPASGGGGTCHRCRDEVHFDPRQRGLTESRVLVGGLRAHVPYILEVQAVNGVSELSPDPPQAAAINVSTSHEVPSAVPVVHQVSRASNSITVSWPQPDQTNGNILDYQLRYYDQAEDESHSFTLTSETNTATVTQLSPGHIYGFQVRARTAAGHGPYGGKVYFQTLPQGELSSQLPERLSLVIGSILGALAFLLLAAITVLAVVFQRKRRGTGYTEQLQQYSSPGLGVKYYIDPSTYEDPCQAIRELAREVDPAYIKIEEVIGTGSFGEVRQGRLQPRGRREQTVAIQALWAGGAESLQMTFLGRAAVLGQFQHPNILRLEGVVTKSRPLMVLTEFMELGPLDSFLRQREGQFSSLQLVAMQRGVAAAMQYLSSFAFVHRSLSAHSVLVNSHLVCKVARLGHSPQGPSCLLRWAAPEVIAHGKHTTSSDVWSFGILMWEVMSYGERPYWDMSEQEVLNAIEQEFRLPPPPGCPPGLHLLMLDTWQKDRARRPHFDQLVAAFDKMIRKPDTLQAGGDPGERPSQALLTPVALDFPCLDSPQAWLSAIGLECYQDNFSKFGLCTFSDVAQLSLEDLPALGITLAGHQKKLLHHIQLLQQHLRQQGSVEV

panel of 468 kinases [2] = target: T2, panel of 468 kinases (Homo sapiens, UniProt Q9NRM7); test: KINOMEscan (ScanMAX) kinase profiling; type: binding; conditions: LATS2; 1 μM; read-out: % control
T2 construct: purchased KINOMEscan (ScanMAX) service
T2 sequence (Q9NRM7 1-1088): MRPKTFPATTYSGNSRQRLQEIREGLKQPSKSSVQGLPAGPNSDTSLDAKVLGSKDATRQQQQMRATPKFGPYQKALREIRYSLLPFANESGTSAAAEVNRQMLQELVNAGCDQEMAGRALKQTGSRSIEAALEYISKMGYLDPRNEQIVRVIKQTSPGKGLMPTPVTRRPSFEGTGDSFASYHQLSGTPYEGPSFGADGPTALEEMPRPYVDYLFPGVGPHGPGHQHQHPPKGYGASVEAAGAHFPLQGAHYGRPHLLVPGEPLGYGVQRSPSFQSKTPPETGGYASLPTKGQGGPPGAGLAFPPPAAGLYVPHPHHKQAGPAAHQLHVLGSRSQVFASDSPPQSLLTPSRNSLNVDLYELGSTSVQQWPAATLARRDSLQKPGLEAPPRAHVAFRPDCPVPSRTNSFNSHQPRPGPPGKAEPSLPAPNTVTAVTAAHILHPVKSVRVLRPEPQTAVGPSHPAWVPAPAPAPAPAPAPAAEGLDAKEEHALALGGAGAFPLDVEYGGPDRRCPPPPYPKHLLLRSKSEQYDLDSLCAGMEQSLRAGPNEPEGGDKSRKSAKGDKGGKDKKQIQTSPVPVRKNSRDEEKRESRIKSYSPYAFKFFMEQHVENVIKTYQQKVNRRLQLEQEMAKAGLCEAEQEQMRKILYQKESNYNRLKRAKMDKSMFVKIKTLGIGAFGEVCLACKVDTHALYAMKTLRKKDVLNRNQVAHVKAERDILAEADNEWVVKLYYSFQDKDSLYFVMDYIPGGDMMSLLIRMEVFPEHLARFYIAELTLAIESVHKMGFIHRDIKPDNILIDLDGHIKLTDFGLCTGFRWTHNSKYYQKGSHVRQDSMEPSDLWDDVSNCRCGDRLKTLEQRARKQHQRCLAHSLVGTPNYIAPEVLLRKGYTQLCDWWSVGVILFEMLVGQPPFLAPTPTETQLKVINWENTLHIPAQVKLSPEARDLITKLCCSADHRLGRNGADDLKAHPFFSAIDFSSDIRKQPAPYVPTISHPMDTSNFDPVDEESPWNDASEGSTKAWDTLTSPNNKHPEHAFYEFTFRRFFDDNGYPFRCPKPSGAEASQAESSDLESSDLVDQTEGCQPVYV

| Structure (SMILES) | remaining binding at 1 µM (panel of 468 kinases [1]) | remaining binding at 1 µM (panel of 468 kinases [2]) |
| --- | --- | --- |
| CNc1nc(Nc2ccc(S(=O)(=O)N3CCC(N4CCOCC4)CC3)cc2OC)nc2[nH]cc(Cl)c12 [Compound 12, 5-chloro-N2-(2-methoxy-4-((4-morpholinopiperidin-1-yl)sulfonyl)phenyl)-N4-methyl-7H-pyrrolo[2,3-d]pyrimidine-2,4-diamine] | 51% | 100% |
| CNc1nc(Nc2ccc(P3(=O)CCN(C4CCOCC4)CC3)cc2OC)nc2[nH]cc(Cl)c12 [Compound 77, 4-(4-((5-chloro-4-(methylamino)-7H-pyrrolo[2,3-d]pyrimidin-2-yl)amino)-3-methoxyphenyl)-1-(tetrahydro-2H-pyran-4-yl)-1,4-azaphosphinane 4-oxide] | 49% | 93% |
| CNc1nc(Nc2ccc(C(=O)N3CCC(N4CCOCC4)CC3)c3c2OCO3)nc2[nH]cc(Cl)c12 [Compound 75, (7-((5-chloro-4-(methylamino)-7H-pyrrolo[2,3-d]pyrimidin-2-yl)amino)benzo[d][1,3]dioxol-4-yl)(4-morpholinopiperidin-1-yl)methanone] | 51% | 90% |
